The record followed here is patent publication US20240190855A1 (Relay Therapeutics, Inc., priority 2021, published 2024).

In this assay the target is T1, CDK2/Cyclin E complex (Homo sapiens, UniProt P24941).
T1 construct: purchased Eurofins 14-475
The assay is described as follows: CDK2/Cyclin E fluorescence-based microfluidic mobility shift assay (CDK2 Biochemical Caliper Assay). The following applies: read-out: Biochemical CDK2/CyclinE Caliper IC50. As for the experimental part: Compounds of the present disclosure were tested in a CDK2/Cyclin E fluorescence-based microfluidic mobility shift assay (PerkinElmer).
The active wild type CDK2/Cyclin E complex was purchased from Eurofins (14-475). Compound stocks were prepared in DMSO and were serially diluted into 11 concentrations by 3-fold dilution. […] Compounds were incubated in the presence of CDK2/Cyclin E complex and ATP for 30 minutes at room temperature. Catalytic reaction was initiated with the addition of 5 uL of a 4× peptide solution containing 6 uM fluorescently label substrate peptide, FL Peptide 18 (aa sequence 5-FAM-QSPKKG, PerkinElmer, 760362) in 1× reaction buffer.
The final reaction components were 0.1 nM CDK2/Cyclin E, 2000 uM ATP and 1.5 uM FL Peptide 18 and 1% DMSO. Reactions were incubated RT for 20 hr and terminated with 75 uL of a stopping solution containing 0.5 M EDTA. Samples were analyzed using a LabChip EZ reader (PerkinElmer).
With `Cc1cc(CC(=O)Nc2cc([C@H]3CC[C@@H](CC(=O)O)C3)[nH]n2)on1` (single isomer, unassigned) [Example 341], the IC50 was in the range of 1 to 100 µM. In the case of `Cc1cc(CC(=O)Nc2cc([C@@H]3CC[C@H](CC(=O)O)C3)[nH]n2)on1` (single isomer, unassigned) [Example 342] it was 1 to 100 µM. In the case of `Cc1cc(CC(=O)Nc2cc([C@H]3CC[C@H](CC(=O)O)C3)[nH]n2)on1` (single isomer, unassigned) [Example 343] it was 1 to 100 µM; in that of `Cc1cc(CC(=O)Nc2cc([C@@H]3CC[C@@H](CC(=O)O)C3)[nH]n2)on1` (single isomer, unassigned) [Example 344], 1 to 100 µM; in that of `Cc1cc(CC(=O)Nc2cc([C@@H]3C[C@H](OC(=O)NC(C)C)CO3)[nH]n2)on1` (single isomer, unassigned) [Example 345], 0.1 to 0.25 µM. In the case of `Cc1cc(CC(=O)Nc2cc([C@H]3C[C@@H](OC(=O)NC(C)C)CO3)[nH]n2)on1` (single isomer, unassigned) [Example 346], the IC50 lay within 0.1 to 0.25 µM. As for `Cc1cc(CC(=O)Nc2cc([C@@H]3CC[C@H](n4cc(C)[nH]c4=O)C3)[nH]n2)on1` (single isomer, unassigned) [Example 349], the figure is 0.25 to 1 µM; as for `Cc1cc(CC(=O)Nc2cc([C@@H]3CC[C@H](Oc4ccccc4)C3)[nH]n2)on1` (single isomer, unassigned) [Example 350], 1 to 100 µM.

As to `Cc1cc(CC(=O)Nc2cc([C@H]3CC[C@@H](Oc4ccccc4)C3)[nH]n2)on1` (single isomer, unassigned) [Example 351], the IC50 was 0.1 to 0.25 µM. Consider `Cc1cc(CC(=O)Nc2cc([C@H]3CC[C@@H](OC(=O)CC(C)C)C3)[nH]n2)on1` (single isomer, unassigned) [Example 352], for which the IC50 is not above 0.1 µM. As for `Cc1cc(CC(=O)Nc2cc([C@@H]3CC[C@H](OC(=O)CC(C)C)C3)[nH]n2)on1` (single isomer, unassigned) [Example 353], the figure is not above 0.1 µM; as for `Cc1cncc(O[C@H]2CC[C@@H](c3cc(NC(=O)Cc4cc(C)no4)n[nH]3)C2)c1` (single isomer, unassigned) [Example 354], 1 to 100 µM. In the case of `Cc1cncc(O[C@@H]2CC[C@H](c3cc(NC(=O)Cc4cc(C)no4)n[nH]3)C2)c1` (single isomer, unassigned) [Example 355] it was 0.25 to 1 µM; in that of `Cc1ccc(O[C@H]2CC[C@@H](c3cc(NC(=O)Cc4cc(C)no4)n[nH]3)C2)cn1` (single isomer, unassigned) [Example 356], 0.25 to 1 µM. As for `Cc1ccc(O[C@@H]2CC[C@H](c3cc(NC(=O)Cc4cc(C)no4)n[nH]3)C2)cn1` (single isomer, unassigned) [Example 357], the figure is 1 to 100 µM; as for `Cc1cc(CC(=O)Nc2cc([C@@H]3CC[C@H](Oc4cccnc4C)C3)[nH]n2)on1` (single isomer, unassigned) [Example 358], 0.25 to 1 µM; as for `Cc1cc(CC(=O)Nc2cc([C@H]3CC[C@@H](Oc4cccnc4C)C3)[nH]n2)on1` (single isomer, unassigned) [Example 359], 0.1 to 0.25 µM. In the case of `Cc1cc(CC(=O)Nc2cc([C@H]3CC[C@@H](Oc4cncnc4)C3)[nH]n2)on1` (single isomer, unassigned) [Example 362], the IC50 was 1 to 100 µM. As for `Cc1cc(CC(=O)Nc2cc([C@@H]3CC[C@H](Oc4cncnc4)C3)[nH]n2)on1` (single isomer, unassigned) [Example 363], the figure is 0.25 to 1 µM.

For the compound `COCc1cc(C(=O)Nc2cc([C@H]3CC[C@@H](Oc4ccccc4)C3)[nH]n2)n(C)n1` (single isomer, unassigned) [Example 364], the IC50 lay within 1 to 100 µM. In the case of `COCc1cc(C(=O)Nc2cc([C@@H]3CC[C@H](Oc4ccccc4)C3)[nH]n2)n(C)n1` (single isomer, unassigned) [Example 365] it was 0.25 to 1 µM. In the case of `COCc1cc(C(=O)Nc2cc([C@H]3CC[C@@H](Oc4cnccc4C)C3)[nH]n2)n(C)n1` (single isomer, unassigned) [Example 366], the IC50 was in the range of 1 to 100 µM. In the case of `COCc1cc(C(=O)Nc2cc([C@@H]3CC[C@H](Oc4cnccc4C)C3)[nH]n2)n(C)n1` (single isomer, unassigned) [Example 367] it was 0.1 to 0.25 µM; in that of `Cc1cc(CC(=O)Nc2cc([C@H]3CC[C@@H](Cc4nncn4C(C)C)C3)[nH]n2)on1` (single isomer, unassigned) [Example 370], 1 to 100 µM; in that of `Cc1cc(CC(=O)Nc2cc([C@@H]3CC[C@H](Cc4nncn4C(C)C)C3)[nH]n2)on1` (single isomer, unassigned) [Example 371], 1 to 100 µM. As for `Cc1cc(CC(=O)Nc2cc([C@@H]3CC[C@@H](Cc4nncn4C(C)C)C3)[nH]n2)on1` (single isomer, unassigned) [Example 372], the IC50 fell in the range of 1 to 100 µM.

`Cc1cc(CC(=O)Nc2cc([C@H]3CC[C@H](Cc4nncn4C(C)C)C3)[nH]n2)on1` (single isomer, unassigned) [Example 373]: the IC50 was in the range of 0.1 to 0.25 µM.

On to `CC(C)NC(=O)O[C@@H]1CC[C@H](c2cc(NC(=O)CN(C)c3ncnc4nc[nH]c34)n[nH]2)C1` (single isomer, unassigned) [Example 374], for which the IC50 lay in the range of 0.1 to 0.25 µM. As for `CC(C)NC(=O)O[C@H]1CC[C@@H](c2cc(NC(=O)CN(C)c3ncnc4nc[nH]c34)[nH]n2)C1` (single isomer, unassigned) [Example 375], the figure is not above 0.1 µM; as for `Cc1cc(CC(=O)Nc2cc([C@@H]3CC[C@@H](O)C3)[nH]n2)on1` (single isomer, unassigned) [Example 376], 1 to 100 µM. With `Cc1cc(CC(=O)Nc2cc([C@H]3CC[C@H](O)C3)[nH]n2)on1` (single isomer, unassigned) [Example 377], the IC50 lay in the range of 1 to 100 µM.

On to `Cc1cc(CC(=O)Nc2cc([C@@H]3CC[C@H](n4cc(C(C)C)[nH]c4=O)C3)[nH]n2)on1` (single isomer, unassigned) [Example 378], for which the IC50 was in the range of 1 to 100 µM. In the case of `Cc1cc(CC(=O)Nc2cc([C@@H]3CC[C@H](Oc4cnccc4C)C3)[nH]n2)on1` (single isomer, unassigned) [Example 379] it was 0.25 to 1 µM; in that of `Cc1cc(CC(=O)Nc2cc([C@H]3CC[C@@H](Oc4cnccc4C)C3)[nH]n2)on1` (single isomer, unassigned) [Example 380], 0.1 to 0.25 µM; in that of `Cc1cc(CC(=O)Nc2cc([C@H]3CC[C@@H](Oc4cnccc4C4CC4)C3)[nH]n2)on1` (single isomer, unassigned) [Example 381], not above 0.1 µM.

`Cc1cc(CC(=O)Nc2cc([C@@H]3CC[C@H](Oc4cnccc4C4CC4)C3)[nH]n2)on1` (single isomer, unassigned) [Example 382]: the IC50 lay in the range of 0.25 to 1 µM.

Consider `COCc1cc(C(=O)Nc2cc([C@H]3CC[C@@H](Oc4cncc(C)c4)C3)[nH]n2)n(C)n1` (single isomer, unassigned) [Example 383], for which the IC50 lay within 1 to 100 µM. As to `COCc1cc(C(=O)Nc2cc([C@@H]3CC[C@H](Oc4cncc(C)c4)C3)[nH]n2)n(C)n1` (single isomer, unassigned) [Example 384], the IC50 lay within 1 to 100 µM.

In the case of `COCc1cc(C(=O)Nc2cc([C@H]3CC[C@@H](Oc4cccnc4C)C3)[nH]n2)n(C)n1` (single isomer, unassigned) [Example 385], the IC50 is 1 to 100 µM. In the case of `COCc1cc(C(=O)Nc2cc([C@@H]3CC[C@H](Oc4cccnc4C)C3)[nH]n2)n(C)n1` (single isomer, unassigned) [Example 386] it was 0.25 to 1 µM. In the case of `COCc1cc(C(=O)Nc2cc([C@H]3CC[C@@H](Oc4cncnc4)C3)[nH]n2)n(C)n1` (single isomer, unassigned) [Example 387] it was 1 to 100 µM; in that of `COCc1cc(C(=O)Nc2cc([C@@H]3CC[C@H](Oc4cncnc4)C3)[nH]n2)n(C)n1` (single isomer, unassigned) [Example 388], 1 to 100 µM. As for `Cc1cc(CC(=O)Nc2cc([C@H]3CC[C@@H](Oc4ccccc4C(C)C)C3)[nH]n2)on1` (single isomer, unassigned) [Example 389], the figure is 0.25 to 1 µM; as for `Cc1cc(CC(=O)Nc2cc([C@@H]3CC[C@H](Oc4ccccc4C(C)C)C3)[nH]n2)on1` (single isomer, unassigned) [Example 390], 0.1 to 0.25 µM; as for `COCc1cc(C(=O)Nc2cc([C@H]3CC[C@@H](Oc4cnccc4C4CC4)C3)[nH]n2)n(C)n1` (single isomer, unassigned) [Example 393], not above 0.1 µM. `COCc1cc(C(=O)Nc2cc([C@@H]3CC[C@H](Oc4cnccc4C4CC4)C3)[nH]n2)n(C)n1` (single isomer, unassigned) [Example 394]: the IC50 was in the range of 0.1 to 0.25 µM. In the case of `COCc1cc(C(=O)Nc2cc([C@H]3CC[C@@H](Oc4ccc(C)nc4)C3)[nH]n2)n(C)n1` (single isomer, unassigned) [Example 395] it was 1 to 100 µM; in that of `COCc1cc(C(=O)Nc2cc([C@@H]3CC[C@H](Oc4ccc(C)nc4)C3)[nH]n2)n(C)n1` (single isomer, unassigned) [Example 396], 1 to 100 µM; in that of `COCc1nc2ccnc(Nc3cc([C@H]4CC[C@@H](OC(=O)NC(C)C)C4)[nH]n3)c2s1` (single isomer, unassigned) [Example 398], not above 0.1 µM. As for `COCc1nc2ccnc(Nc3cc([C@@H]4CC[C@H](OC(=O)NC(C)C)C4)[nH]n3)c2s1` (single isomer, unassigned) [Example 399], the figure is not above 0.1 µM.
